In the supplement of paper PMC10307832:

Legend:
Assay in all cases: relative viability (nuclei count vs DMSO), 5 days (fraction); higher = more cells survive
NCI-H650 = system: NCI-H650
Outline: (§1)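 Lung cancer cell lines in 1536-well plates got either a single drug or a fixed anchor-drug dose together with five library-drug doses (not always all listed) in √10 steps, by pin tool, on the day after seeding. Nuclei were counted after 5 days, and relative viability is the treated-to-vehicle ratio of nuclei counts. Values are medians of duplicate plates.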

NCI-H322M = system: NCI-H322M
Outline: as §1

EPLC-272H = system: EPLC-272H
Outline: as §1

SK-MES-1 = system: SK-MES-1
Outline: as §1

NCI-H2023 = system: NCI-H2023
Outline: as §1

NCI-H2087 = system: NCI-H2087
Outline: as §1

LCLC-103H = system: LCLC-103H
Outline: as §1

UMC-11 = system: UMC-11
Outline: as §1

NCI-H1563 = system: NCI-H1563
Outline: as §1

NCI-H1651 = system: NCI-H1651
Outline: as §1

ChaGo-K-1 = system: ChaGo-K-1
Outline: as §1

NCI-H520 = system: NCI-H520
Outline: as §1

NCI-H1395 = system: NCI-H1395
Outline: as §1

NCI-H1355 = system: NCI-H1355
Outline: as §1

HCC-827 = system: HCC-827
Outline: as §1

NCI-H1944 = system: NCI-H1944
Outline: as §1

HCC-44 = system: HCC-44
Outline: as §1

NCI-H1793 = system: NCI-H1793
Outline: as §1

NCI-H2085 = system: NCI-H2085
Outline: as §1

LCLC-97TM1 = system: LCLC-97TM1
Outline: as §1

EMC-BAC-2 = system: EMC-BAC-2
Outline: as §1

H3255 = system: H3255
Outline: as §1

NCI-H2405 = system: NCI-H2405
Outline: as §1

Structure (SMILES): Oc1nc(-c2ccc(C(F)(F)F)cc2)nc2c1CSCC2 [XAV939] + COc1cccc2cc(-c3nc([C@H]4CC[C@H](C(=O)O)CC4)n4ncnc(N)c34)[nH]c12 [OSI-027] (partner 0.5 µM)
- relative viability (NCI-H650; first compound 0.08 µM): 0.52
- relative viability (NCI-H650; first compound 0.253 µM): 0.565
- relative viability (NCI-H650; first compound 0.8 µM): 0.493
- relative viability (NCI-H650; first compound 2.53 µM): 0.37
- relative viability (NCI-H322M; first compound 0.08 µM): 0.615
- relative viability (NCI-H322M; first compound 0.253 µM): 0.594
- relative viability (NCI-H322M; first compound 0.8 µM): 0.504
- relative viability (NCI-H322M; first compound 2.53 µM): 0.406
- relative viability (EPLC-272H; first compound 0.08 µM): 0.312
- relative viability (EPLC-272H; first compound 0.253 µM): 0.22
- relative viability (EPLC-272H; first compound 0.8 µM): 0.261
- relative viability (EPLC-272H; first compound 2.53 µM): 0.314
- relative viability (SK-MES-1; first compound 0.08 µM): 0.576
- relative viability (SK-MES-1; first compound 0.253 µM): 0.584
- relative viability (SK-MES-1; first compound 0.8 µM): 0.631
- relative viability (SK-MES-1; first compound 2.53 µM): 0.424
- relative viability (NCI-H2023; first compound 0.08 µM): 0.368
- relative viability (NCI-H2023; first compound 0.253 µM): 0.288
- relative viability (NCI-H2023; first compound 0.8 µM): 0.321
- relative viability (NCI-H2023; first compound 2.53 µM): 0.251
- relative viability (NCI-H2087; first compound 0.08 µM): 0.833
- relative viability (NCI-H2087; first compound 0.253 µM): 0.504
- relative viability (NCI-H2087; first compound 0.8 µM): 0.444
- relative viability (NCI-H2087; first compound 2.53 µM): 0.46
- relative viability (LCLC-103H; first compound 0.08 µM): 0.534
- relative viability (LCLC-103H; first compound 0.253 µM): 0.443
- relative viability (LCLC-103H; first compound 0.8 µM): 0.463
- relative viability (LCLC-103H; first compound 2.53 µM): 0.432
- relative viability (UMC-11; first compound 0.08 µM): 0.456
- relative viability (UMC-11; first compound 0.253 µM): 0.478
- relative viability (UMC-11; first compound 0.8 µM): 0.538
- relative viability (UMC-11; first compound 2.53 µM): 0.44
- relative viability (NCI-H1563; first compound 0.08 µM): 0.844
- relative viability (NCI-H1563; first compound 0.253 µM): 0.769
- relative viability (NCI-H1563; first compound 0.8 µM): 0.708
- relative viability (NCI-H1563; first compound 2.53 µM): 0.614
- relative viability (NCI-H1651; first compound 0.08 µM): 0.925
- relative viability (NCI-H1651; first compound 0.253 µM): 0.711
- relative viability (NCI-H1651; first compound 0.8 µM): 0.838
- relative viability (NCI-H1651; first compound 2.53 µM): 0.69
- relative viability (ChaGo-K-1; first compound 0.08 µM): 0.562
- relative viability (ChaGo-K-1; first compound 0.253 µM): 0.534
- relative viability (ChaGo-K-1; first compound 0.8 µM): 0.533
- relative viability (ChaGo-K-1; first compound 2.53 µM): 0.472
- relative viability (NCI-H520; first compound 0.08 µM): 0.262
- relative viability (NCI-H520; first compound 0.253 µM): 0.225
- relative viability (NCI-H520; first compound 0.8 µM): 0.224
- relative viability (NCI-H520; first compound 2.53 µM): 0.225
- relative viability (NCI-H1395; first compound 0.08 µM): 0.656
- relative viability (NCI-H1395; first compound 0.253 µM): 0.612
- relative viability (NCI-H1395; first compound 0.8 µM): 0.556
- relative viability (NCI-H1395; first compound 2.53 µM): 0.634
- relative viability (NCI-H1355; first compound 0.08 µM): 0.396
- relative viability (NCI-H1355; first compound 0.253 µM): 0.353
- relative viability (NCI-H1355; first compound 0.8 µM): 0.368
- relative viability (NCI-H1355; first compound 2.53 µM): 0.274
- relative viability (HCC-827; first compound 0.08 µM): 0.817
- relative viability (HCC-827; first compound 0.253 µM): 0.744
- relative viability (HCC-827; first compound 0.8 µM): 0.826
- relative viability (HCC-827; first compound 2.53 µM): 0.711
- relative viability (NCI-H1944; first compound 0.08 µM): 0.441
- relative viability (NCI-H1944; first compound 0.253 µM): 0.393
- relative viability (NCI-H1944; first compound 0.8 µM): 0.403
- relative viability (NCI-H1944; first compound 2.53 µM): 0.367
- relative viability (HCC-44; first compound 0.08 µM): 0.611
- relative viability (HCC-44; first compound 0.253 µM): 0.533
- relative viability (HCC-44; first compound 0.8 µM): 0.476
- relative viability (HCC-44; first compound 2.53 µM): 0.726
- relative viability (NCI-H1793; first compound 0.08 µM): 0.308
- relative viability (NCI-H1793; first compound 0.253 µM): 0.232
- relative viability (NCI-H1793; first compound 0.8 µM): 0.298
- relative viability (NCI-H1793; first compound 2.53 µM): 0.27
- relative viability (NCI-H2085; first compound 0.08 µM): 0.638
- relative viability (NCI-H2085; first compound 0.253 µM): 0.686
- relative viability (NCI-H2085; first compound 0.8 µM): 0.958
- relative viability (NCI-H2085; first compound 2.53 µM): 0.625
- relative viability (LCLC-97TM1; first compound 0.08 µM): 0.643
- relative viability (LCLC-97TM1; first compound 0.253 µM): 0.566
- relative viability (LCLC-97TM1; first compound 0.8 µM): 0.545
- relative viability (LCLC-97TM1; first compound 2.53 µM): 0.609
- relative viability (EMC-BAC-2; first compound 0.08 µM): 0.402
- relative viability (EMC-BAC-2; first compound 0.253 µM): 0.344
- relative viability (EMC-BAC-2; first compound 0.8 µM): 0.319
- relative viability (EMC-BAC-2; first compound 2.53 µM): 0.236
- relative viability (H3255; first compound 0.08 µM): 0.555
- relative viability (H3255; first compound 0.253 µM): 0.584
- relative viability (H3255; first compound 0.8 µM): 0.6
- relative viability (H3255; first compound 2.53 µM): 0.384
- relative viability (NCI-H2405; first compound 0.08 µM): 0.605
- relative viability (NCI-H2405; first compound 0.253 µM): 0.586
- relative viability (NCI-H2405; first compound 0.8 µM): 0.611
- relative viability (NCI-H2405; first compound 2.53 µM): 0.598
